No end group written: not given here.
Experiments:
Assay in all cases: biochemical
HLA-B*0702 = HLA-B*0702 (Homo sapiens, UniProt P01889); format: binding; details: B*0702 binding affinity (IC50)
HLA-B*5301 = HLA-B*5301 (Homo sapiens, UniProt P01889, A329T/A93T/A95T/C349S/D201E/D98Y/E176V/E187L/E204Q/E69T/G107R/I218V/K202T/L105A/L119I/N104I/Q94N/R106L/R155S/R180L/S101N/S121R/S35A/S48A/T118I/V127L/V306I/V36M/Y140S/Y91F); format: binding; details: B*5301 binding affinity (IC50)
HLA-B*5401 = HLA-B*5401 (Homo sapiens, UniProt P01889, A329T/C349S/D138N/D201E/E176V/E187T/E204Q/E69G/I76V/K202T/L119W/R155S/R180L/S121T/S35A/S48A/V127L/V306I/V36M/Y140L); format: binding; details: B*5401 binding affinity (IC50)
HLA-B*3501 = HLA-B*3501 (Homo sapiens, UniProt P01889, A329T/A93T/A95T/C349S/D201E/D98Y/E176V/E187L/E204Q/E69T/I218V/K202T/L119I/Q94N/R155S/R180L/S121R/S35A/S48A/T118I/V127L/V306I/V36M/Y140S/Y91F); details: B*3501 binding affinity (IC50)
HLA-B*5101 = HLA-B*5101 (Homo sapiens, UniProt P01889, A329T/A93T/A95T/C349S/D138N/D201E/D98Y/E187L/E204Q/E69T/G107R/I218V/K202T/L105A/L119W/N104I/Q94N/R106L/R155S/R180L/S101N/S121T/S35A/S48A/V306I/V36M/Y195H/Y91F); details: B*5101 binding affinity (IC50)
H-2Ld = H-2Ld (Mus musculus, UniProt P01897); format: binding, murine; details: Ld
Chain of H-2Ld (P01897 25-362): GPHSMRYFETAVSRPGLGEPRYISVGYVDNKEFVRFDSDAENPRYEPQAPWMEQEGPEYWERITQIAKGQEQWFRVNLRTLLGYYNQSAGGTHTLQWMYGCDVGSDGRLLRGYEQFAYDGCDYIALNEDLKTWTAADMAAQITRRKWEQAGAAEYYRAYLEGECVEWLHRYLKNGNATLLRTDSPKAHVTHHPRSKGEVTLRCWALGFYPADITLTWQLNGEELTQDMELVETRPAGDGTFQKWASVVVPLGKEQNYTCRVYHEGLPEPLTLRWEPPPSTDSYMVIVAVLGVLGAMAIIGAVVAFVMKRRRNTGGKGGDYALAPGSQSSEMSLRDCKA
Chain of H-2Ld (P61769 21-119, further chain): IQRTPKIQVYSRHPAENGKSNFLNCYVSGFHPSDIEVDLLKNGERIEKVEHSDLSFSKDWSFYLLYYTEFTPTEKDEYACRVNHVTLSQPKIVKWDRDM

H-2Kk = H-2Kk (Mus musculus, UniProt P04223); format: binding, murine
Chain of H-2Kk (P04223 22-369): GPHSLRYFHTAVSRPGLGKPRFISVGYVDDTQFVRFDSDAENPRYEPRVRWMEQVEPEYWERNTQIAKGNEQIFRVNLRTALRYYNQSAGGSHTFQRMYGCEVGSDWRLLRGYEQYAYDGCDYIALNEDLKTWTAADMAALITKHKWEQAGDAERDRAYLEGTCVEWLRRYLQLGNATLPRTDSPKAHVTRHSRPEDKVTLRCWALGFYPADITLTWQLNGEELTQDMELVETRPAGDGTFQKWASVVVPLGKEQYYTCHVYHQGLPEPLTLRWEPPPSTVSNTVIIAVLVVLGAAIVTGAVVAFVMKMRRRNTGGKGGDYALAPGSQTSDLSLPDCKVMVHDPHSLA
Chain of H-2Kk (P61769 21-119, further chain): as the sequence (P61769 21-119, further chain) above

HLA-B*1801 = HLA-B*1801 (Homo sapiens, UniProt P01889, A329T/A93T/A95T/C349S/D201E/D54G/D98Y/E176V/E187T/E204Q/E69T/K202T/Q94N/R155S/R180L/S121R/V306I/Y140S/Y195H/Y33H/Y91S); format: binding; details: B*1801
HLA-B*4501 = HLA-B*4501 (Homo sapiens, UniProt P01889, A329T/A65T/A93T/A95T/C349S/D138N/D201E/D98Y/E176V/E187L/E204Q/E69K/H137Y/K202T/L119W/N87E/Q56L/Q94N/R155S/R180D/S121R/S35A/S48T/V127L/V306I/V36M/W191S/Y140L/Y33H/Y91S); format: binding; details: B*4501
HLA-B*4402 = HLA-B*4402 (Homo sapiens, UniProt P01889, A223V/A65T/A93T/A95T/D201E/D98Y/E176V/E187L/E204Q/E69K/G107R/H137Y/K202T/L105A/L119I/N104T/N87E/Q56L/Q94N/R106L/R155S/R180D/S101N/S121R/S35A/S48T/T118I/V36M/W191S/Y140D/Y91S); format: binding; details: B*4402
HLA-B*4002 = HLA-B*4002 (Homo sapiens, UniProt P01889, A65T/A93T/A95T/D138N/D201E/D98Y/E176V/E204Q/E69K/K202T/N87E/Q56L/Q94N/R180L/S48T/Y33H/Y91S); format: binding; details: B*4002
[1] = target: HLA-DQ DQA1*0301/B*0302 (DQ8) (Homo sapiens, UniProt P01909+P01920, A209T/A45G/C70Q/D89A/DUP78-78/E183D/E77G/F237L/G63E/H199R/I129T/K197E/L178F/L74F/L98V/Q57E/Q76R/S185I/S97I/T217I/T49S/V73L/Y58L)
H-2 Db = H-2 Db (Mus musculus, UniProt P01899); format: binding, murine; details: Db
Chain of H-2 Db (P61769 21-119): as the sequence (P61769 21-119, further chain) above
Chain of H-2 Db (P01899 25-362): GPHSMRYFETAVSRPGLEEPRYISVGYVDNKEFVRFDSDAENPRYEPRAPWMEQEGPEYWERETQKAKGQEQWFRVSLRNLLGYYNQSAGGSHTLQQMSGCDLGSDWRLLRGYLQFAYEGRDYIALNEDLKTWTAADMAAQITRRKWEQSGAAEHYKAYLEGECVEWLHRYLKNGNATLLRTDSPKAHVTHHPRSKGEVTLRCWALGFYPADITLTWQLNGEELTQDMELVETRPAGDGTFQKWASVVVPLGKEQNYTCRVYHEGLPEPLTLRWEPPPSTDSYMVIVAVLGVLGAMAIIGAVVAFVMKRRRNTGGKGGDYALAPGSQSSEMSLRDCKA

Compound | IC50 (HLA-B*0702) [nM] | IC50 (HLA-B*5301) [nM] | IC50 (HLA-B*5401) [nM] | IC50 (HLA-B*3501) [nM] | IC50 (HLA-B*5101) [nM] | IC50 (H-2Ld) [nM] | other results
CC(C)C[C@H](NC(=O)[C@H](Cc1c[nH]cn1)NC(=O)[C@H](CCCNC(=N)N)NC(=O)[C@H](CCC(N)=O)NC(=O)[C@H](CCCCN)NC(=O)[C@H](CCC(=O)O)NC(=O)[C@H](CCC(=O)O)NC(=O)[C@@H]1CCCN1C(=O)[C@@H](N)CS)C(=O)O | 10 | > 109000 | > 76900 | > 52600 | > 35500 | – | –
CC(C)C[C@H](NC(=O)[C@@H]1CCCN1C(=O)[C@@H](NC(=O)[C@H](CCC(N)=O)NC(=O)[C@@H]1CCCN1C(=O)[C@H](CCCNC(=N)N)NC(=O)[C@@H](NC(=O)[C@@H]1CCCN1C(=O)[C@@H](N)Cc1ccccc1)C(C)C)C(C)C)C(=O)O | 17 | 49 | 21 | 3.8 | 18 | – | –
CSCC[C@H](NC(=O)[C@@H](NC(=O)[C@H](C)NC(=O)[C@H](Cc1ccccc1)NC(=O)[C@H](CC(N)=O)NC(=O)[C@H](Cc1ccc(O)cc1)NC(=O)[C@@H](NC(=O)[C@H](C)NC(=O)[C@@H](N)CCCCN)C(C)C)[C@@H](C)O)C(=O)O | – | – | – | – | – | > 27000 | –
N=C(N)NCCC[C@H](NC(=O)[C@H](CCC(N)=O)NC(=O)[C@@H]1CCCN1C(=O)[C@@H](N)CCC(N)=O)C(=O)NCC(=O)N[C@@H](Cc1ccc(O)cc1)C(=O)N[C@@H](CCC(=O)O)C(=O)N[C@@H](CC(N)=O)C(=O)N[C@@H](Cc1ccccc1)C(=O)O | – | – | – | – | – | 319 | –
CC(C)C[C@H](NC(=O)[C@H](C)NC(=O)[C@@H](NC(=O)[C@H](CC(C)C)NC(=O)[C@H](C)NC(=O)[C@@H](NC(=O)[C@@H](NC(=O)[C@H](CCCNC(=N)N)NC(=O)[C@@H]1CCCN1C(=O)[C@H](C)N)[C@@H](C)O)C(C)C)[C@@H](C)O)C(=O)O [APRTVALTAL] | 12 | 61600 | 16800 | 4350 | 14600 | – | –
APCNFFTSA | 43 | > 22400 | 0.61 | 8090 | – | – | –
CPTVQASKL | 3250 | 1860 | 21600 | 645 | 448 | – | –
EEKHEKKHV | – | – | – | – | – | – | IC50 (H-2Kk): 284 nM
FPGPGPGPL | 1580 | 21000 | 29900 | 426 | 2330 | – | –
FPLTFGWCFKI | 52600 | 188 | – | 4990 | 590 | – | –
FPLTFGWCI | 48000 | 36 | 14 | 164 | 63 | – | –
FPVGPGPGL | – | 32 | 246 | 14 | 138 | – | –
HETTYNSI | – | – | – | – | – | – | IC50 (HLA-B*1801): 1640 nM; IC50 (H-2Kk): 1.8 nM; IC50 (HLA-B*4501): 6610 nM; IC50 (HLA-B*4402): 616 nM; IC50 (HLA-B*4002): 336 nM
IDVWLGGLKENFLPY | – | – | – | – | – | – | IC50 [1]: > 2800 nM
IPQSLDSWTSL | – | – | – | – | – | 0.22 | –
KAVANFATM | – | – | – | – | – | 27000 | IC50 (H-2 Db): 1.2 nM
KAVYNAATM | – | – | – | – | – | > 27000 | IC50 (H-2 Db): 2 nM
KAVYNFAAM | – | – | – | – | – | 27000 | IC50 (H-2 Db): 4.4 nM
KAVYNYATM | – | – | – | – | – | > 27000 | IC50 (H-2 Db): 2.1 nM
LGFVFTLTV | 849 | > 93000 | – | > 72000 | – | – | –
LPPLERLTI | 24400 | 2620 | 11200 | 13400 | 359 | – | –
NEEPSDKHI | – | – | – | – | – | – | IC50 (H-2Kk): 40 nM
